Read-outs that look alike come from different tables or passages of the source.
Experiments:
[1] = tested on: Kunming mice; settings: 10 mice
Method: The mice were provided by Medical school of Tongji University and with a batch No. 19-052.
Commonly, the lethality of the mice was regarded as positive index. After the death mice of each group were recorded and calculated and a LD50 value was calculated according to the Bliss statistical method.

[2] = tested on: intestinal cancer cell (HT-29); assay: In vitro inhibition of intestinal cancer cell, time course; format: cell-based
Method: (§1) The relation between administering period and curable effect was intensely observed. That is to say, the inhibiting rate would be recorded according to different administering time of the medicine, such as 2, 3, 4 days administration. It is discovered that administered raw medicine of low concentration, such as 0.1 μg, 0.5 μg, 2 μg/ml, had weak inhibiting effects towards three different cancer cells. As the administering period is extended, the inhibiting effect would gradually be strengthened. […] The extension of administering period could not promptly increase the inhibiting effect. […] In short, for HT-29, A549, and Hep-G2, the maximum inhibiting effect occurred mostly at the fourth administering day, therefore illustrating a better slow-release effect of such medicine.

[3] = tested on: lung cancer cell (A549); assay: In vitro inhibition of lung cancer cell, time course; format: cell-based
Method: as §1

[4] = tested on: liver cancer cell (Hep-G2); assay: In vitro inhibition of liver cancer cell, time course; format: cell-based
Method: as §1

[5] = administering dosage 2250, intravenous
[6] = administering dosage 3713, intravenous
[7] = administering dosage 6126, intravenous
[8] = administering dosage 10108, intravenous
[9] = administering dosage 16678, intravenous

C[C@H]1[C@H](C)CC[C@]2(C(=O)O)CC[C@]3(C)C(=CC[C@@H]4[C@@]5(C)CC[C@H](O)C(C)(C)[C@@H]5CC[C@]43C)[C@H]12 [Ursolic Acid for Injection, ursolic acid]
Death number (r) [1, 5]: 0
Lethal rate(%) [1, 5]: 0%
Probability unit (y) [1, 5]: 0
Death number (r) [1, 6]: 1
Lethal rate(%) [1, 6]: 10%
Probability unit (y) [1, 6]: 3.72
Death number (r) [1, 7]: 3
Lethal rate(%) [1, 7]: 30%
Probability unit (y) [1, 7]: 4.48
Death number (r) [1, 8]: 6
Lethal rate(%) [1, 8]: 60%
Probability unit (y) [1, 8]: 5.25
Death number (r) [1, 9]: 10
Lethal rate(%) [1, 9]: 100%
peak inhibiting effect ([2]; HT-29, 10, 50 μg/ml, third day of administration): 95%
inhibiting effect ([2]; HT-29, high concentration 10, 50 μg/ml): strong
inhibiting effect ([2]; HT-29, low concentration 0.1 μg, 0.5 μg, 2 μg/ml): weak
peak inhibiting effect ([3]; A549, 10, 50 μg/ml, third day of administration): 95%
inhibiting effect ([3]; A549, high concentration 10, 50 μg/ml): strong
inhibiting effect ([3]; A549, low concentration 0.1 μg, 0.5 μg, 2 μg/ml): weak
peak inhibiting effect ([4]; Hep-G2, 10, 50 μg/ml, third day of administration): 95%
inhibiting effect ([4]; Hep-G2, high concentration 10, 50 μg/ml): strong
inhibiting effect ([4]; Hep-G2, low concentration 0.1 μg, 0.5 μg, 2 μg/ml): weak

Reference: patent US8287889B2 (Wuhan Liyuanheng Pharmaceutical Technology Ltd., priority 2002, dated 2012)
